The assay has as its system Porcine Smooth Muscle Cell. Description: Inhibition of smooth muscle cell proliferation (3H-thymidine, serum or PDGF stimulated). Format: cell-based. The note with it: Sus scrofa, porcine aortic smooth muscle cells, 24-36 hours; for inhibition at 10 µM: read-out: Porcine Smooth Muscle Cell Antiproliferation % Inhibition at x Concentration, Serum. As for the experimental part: The ability of the compounds of the present invention to inhibit smooth muscle cell proliferation was established using isolated porcine nortic smooth muscle cells in a modification of the procedure of Casteliot et al. J. Biol. Chem 257(19) 11256 (1982), as follows:
Fresh porcine aortas, scrupulously cleansed of fatty tissue, are rinsed in sterile phosphate-buffered saline with 2% antibiotic-antimycotic (100×) liquid ( 10,000 units of penicillin (base), 10,000 μg of streptomycin (base), and 25 μg of amphotericin B/mL utilizing penicillin G (sodium salt), streptomycin sulfate, and amphotericin B as Fungizone® in 0.85% saline, available from Gibco Laboratories, Grand Island Biological Co., Grand Island, N.Y.). The tissue is then digested in 10-15 mL of an enzyme solution containing collagerinse type I, 165 U/mL; elastase type III, 15 U/mL; BSA, 2 mg/mL; and soybean trypsin inhibitor, 0.375 mg/mL, followed by incubation at 37° C. under 5% CO2 atmosphere for 10 to 15 minutes. After this treatment, the outer surface adventitia is removed by peeling with a forceps. The aorta is then longitudinally cut and laid open and the endothelial layer is removed by scraping.
The medial layer of cells is rinsed in the enzyme solution, and placed in a new 100 mm dish with 10 mL of enzyme solution. The medial layer of cells is minced using a fine pair of scissors and digested for 2-3 hours at 37° C. in 30 mL of fresh enzyme solution. After digestion, the medial tissue is homogenized using a sterile Pasteur pipette with a fire polished tip or an Eppendorf pipetter with a 200-1000 gL sterile pipette tip. The suspension is then centrifuged for 10 minutes at 8000 rpm and the pellet is suspended in 4-6 mL of fresh enzyme solution and plated onto 4-6 100 mm flasks with vented caps. The cells are then allowed to grow to confluence and split using 0.25% trypsin. The cells are evaluated for purity and overall quality using antibody to SMC actin.
The cells are assayed in early passage (generally passage 3-7) at sub-confluent conditions. Cultures are grown in 16 mm (24 well) multi-well culture dishes in media 199 supplemented with 10% fetal bovine serum and 2% antibiotic/antimycotic. At subconfluence, the cells are placed in a defined serum free, lymphocyte medium (AIM-V; Gibeo) for 24-48 hours prior to initiating the experimental protocol.
The standard test procedure is initiated by addition of the test compound, ^3 H-thymidine and serum or a specific growth factor to the serum deprived synchronized cells. Growth factor and serum stimulations are optimized for each cell type. The test compounds are added to each well at 50 fold dilution (20 μL/well) and the plates are incubated for 24-36 hours at 37° C. in 5% CO2 atmosphere. Test compounds are dissolved in 50% ethanol and assayed at 1, 10, and 100 μM. As a control, RG 50872 (Bilder, G. A.; et al., Am. J. Cell Physiol., 1991; 260: C721) is routinely assayed under the conditions of each cell preparation at a concentration of 5 μM.
At the completion of the experiment, the plates are placed on ice, washed three times with ice cold PBS and incubated in ice cold 10% trichloroacetic acid (TCA) for 30 minutes to remove acid soluble proteins. Each solution is transferred to a scintillation vial containing 0.4N HCl (500 μL/vial to neutralize NaOH) and each well is rinsed two times with water (500 μL) for a total volume of 2 mL/vial.
Data is quantitated by subjecting the vials to a scintillation counter, in triplicate, for both control and experimental samples. Control (100%) data is obtained from maximally stimulated cells, as the result of growth factor or serum stimulation. Experimental data is obtained from cells maximally stimulated with growth factor or serum and treated with a test compound. (The platelet-derived growth factor used in the assay was human recombinant PDGF-AB purchased from Upstate Biotechnology Inc., Lake Placid, N.Y.). Data is expressed as a percent of control from which IC50 s are determined.

Where [1] appears, read: human recombinant PDGF-AB stimulated, read-out: Porcine Smooth Muscle Cell Antiproliferation IC50, PDGF.

From patent US5654436A, “2-substituted benzimidazole derivatives” (American Home Products Corporation, priority 1995, dated 1997) come the findings set out here.

Read-outs that look alike come from different tables or passages of the source.

Consider `Clc1ccc(Cn2c(-c3ccccn3)nc3ccccc32)cc1Cl` [Example 1, 1-(3,4-Dichiorobenzyl)-2-pyridin-2-yl-1H-benzoimidazole], for which, under setting [1], the IC50 is 4400 nM. Also, for the setting “serum stimulated”, the inhibition at 10 µM amounted to 39.8%.

As for `COC(=O)c1ccc(Cn2c(-c3ccccn3)nc3ccccc32)cc1` [Example 2, 4-[2-(Pyridin-2-yl)-benzoimidazol-1-ylmethyl]-benzoic acid methyl ester], the IC50 under setting [1] came out at 1100 nM. For the same compound, the inhibition at 10 µM (serum stimulated) was determined as 38.4%.

On to `COC(=O)c1ccc(Cn2c(C(F)(F)F)nc3cc(C)c(C)cc32)cc1` [Example 3, 4-(5,6-Dimethyl-2-trifluoromethyl-benzoimidazol-1-ylmethyl)-benzoic acid methyl ester], for which the IC50 under setting [1] is 2470 nM. In addition, the inhibition at 10 µM (serum stimulated) was 41.3%.

Turning to `CCCc1nc2cc([N+](=O)[O-])ccc2n1Cc1ccc(C(=O)OCC)cc1` [Example 4, 4-(5-Nitro-2-propyl-benzoimidazol-1-ylmethyl)-benzoic acid ethyl ester], the IC50 was determined as 760 nM under setting [1] and 660 nM (serum stimulated, read-out: Porcine Smooth Muscle Cell Antiproliferation IC50, Serum).
